Source: patent US11253501B2, “Secnidazole formulations and use in treating bacterial vaginosis” (LUPIN INC., priority 2015, dated 2022)

Tests used:
[1] = Urine pharmacokinetics after a single oral dose in fasted healthy female subjects; format: in vivo, human; conditions: 2 gram secnidazole microgranule formulation (70% drug in core)
[2] = Plasma pharmacokinetics after a single oral dose in fasted healthy female subjects; format: in vivo, human; conditions: 2 gram secnidazole microgranule formulation (70% drug in core)

% FE, Geometric Mean (SD) [1]: 14.991 (3.0081) %
% FE, Mean (SD) [1]: 15.300 (3.5549) %
% FE, Median [1]: 14.943%
Ae0-168, Geometric Mean (SD) [1]: 0.300 (0.0602) g
Ae0-168, Mean (SD) [1]: 0.306 (0.0711) g
Ae0-168, Median [1]: 0.299 g
λz, Mean (SD) [2]: 0.0422 (0.007544) 1/h
λz, Median [2]: 0.04047 h⁻¹
SMILES: Cc1ncc([N+](=O)[O-])n1CC(C)O (centres unmarked) [Secnidazole, 1-(2-hydroxypropyl)-2-methyl-5-nitromidazole]
